From patent US9364479B2, “Use of a receptor-type kinase modulator for treating polycystic kidney disease” (SYMPHONY EVOLUTION, INC., priority 2010, dated 2016)
“And” between values parts separate entries of the source, which are not always exact repeats. Equal values may be shown once. Marks after values point to notes of the source that are not given here.

How the values were obtained:
Serotonin, Non-selective = assay: NovaScreen assay; type: binding
CYP2D6 = CYP2D6 (Homo sapiens, UniProt P10635)
CYP2D6, sequence (P10635 whole entry): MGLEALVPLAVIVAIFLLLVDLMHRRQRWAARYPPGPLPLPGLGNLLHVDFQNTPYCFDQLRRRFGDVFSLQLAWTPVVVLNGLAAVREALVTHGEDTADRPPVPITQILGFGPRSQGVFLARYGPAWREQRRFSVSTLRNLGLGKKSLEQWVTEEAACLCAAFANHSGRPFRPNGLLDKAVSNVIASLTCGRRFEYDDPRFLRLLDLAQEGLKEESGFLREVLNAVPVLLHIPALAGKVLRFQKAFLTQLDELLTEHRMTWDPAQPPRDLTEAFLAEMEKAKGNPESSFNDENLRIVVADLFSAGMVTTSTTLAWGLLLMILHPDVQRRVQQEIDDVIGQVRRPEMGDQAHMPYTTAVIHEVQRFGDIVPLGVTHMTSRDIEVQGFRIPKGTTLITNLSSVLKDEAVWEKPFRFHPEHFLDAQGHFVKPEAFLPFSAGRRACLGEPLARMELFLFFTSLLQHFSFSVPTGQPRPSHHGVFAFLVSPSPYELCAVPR

[1] = biological target: T1, GABA A, BDZ, alpha 1, Central (Homo sapiens, UniProt P14867+P18507); assay: NovaScreen assay; type: binding; settings: read-out: Inhibition, 10 μM XL-647
T1 construct: NovaScreen

Plk1 = biological target: T2, Plk1 (Homo sapiens, UniProt P53350); assay: Radiometric kinase assay; type: biochemical
T2 construct: His6
T2 sequence (P53350 whole entry): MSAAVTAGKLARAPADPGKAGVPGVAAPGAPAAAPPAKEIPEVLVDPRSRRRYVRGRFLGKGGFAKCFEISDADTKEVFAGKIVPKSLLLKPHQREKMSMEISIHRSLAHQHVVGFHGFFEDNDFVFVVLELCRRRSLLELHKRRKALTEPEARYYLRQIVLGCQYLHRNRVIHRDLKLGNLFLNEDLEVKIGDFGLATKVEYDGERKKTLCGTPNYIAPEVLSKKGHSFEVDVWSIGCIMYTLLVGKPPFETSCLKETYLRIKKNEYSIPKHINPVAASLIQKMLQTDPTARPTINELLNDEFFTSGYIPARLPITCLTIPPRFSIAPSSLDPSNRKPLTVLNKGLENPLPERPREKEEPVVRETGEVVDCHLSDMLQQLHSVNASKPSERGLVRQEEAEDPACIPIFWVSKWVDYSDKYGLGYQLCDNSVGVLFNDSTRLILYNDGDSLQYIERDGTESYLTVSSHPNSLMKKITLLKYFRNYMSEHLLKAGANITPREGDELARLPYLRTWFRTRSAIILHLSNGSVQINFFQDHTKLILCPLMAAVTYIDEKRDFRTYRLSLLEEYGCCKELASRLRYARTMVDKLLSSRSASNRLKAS
Method: (§1) Further screening was performed using the biochemical assay methods of Example 2. Additional description of the components and concentrations are summarized in Table 8, Table 9, and Table 10, below.

PKC-ε = biological target: T3, PKC-ε (Homo sapiens, UniProt Q02156); assay: Radiometric kinase assay; type: biochemical
T3 construct: purchased PanVera
Method: as §1

Chk2 = biological target: T4, Chk2 (Homo sapiens, UniProt O96017); assay: Radiometric kinase assay; type: biochemical
T4 construct: Human, 5-543, N-; GST (N); His (C); purchased Upstate Biotechnology
T4 sequence (O96017 5-543): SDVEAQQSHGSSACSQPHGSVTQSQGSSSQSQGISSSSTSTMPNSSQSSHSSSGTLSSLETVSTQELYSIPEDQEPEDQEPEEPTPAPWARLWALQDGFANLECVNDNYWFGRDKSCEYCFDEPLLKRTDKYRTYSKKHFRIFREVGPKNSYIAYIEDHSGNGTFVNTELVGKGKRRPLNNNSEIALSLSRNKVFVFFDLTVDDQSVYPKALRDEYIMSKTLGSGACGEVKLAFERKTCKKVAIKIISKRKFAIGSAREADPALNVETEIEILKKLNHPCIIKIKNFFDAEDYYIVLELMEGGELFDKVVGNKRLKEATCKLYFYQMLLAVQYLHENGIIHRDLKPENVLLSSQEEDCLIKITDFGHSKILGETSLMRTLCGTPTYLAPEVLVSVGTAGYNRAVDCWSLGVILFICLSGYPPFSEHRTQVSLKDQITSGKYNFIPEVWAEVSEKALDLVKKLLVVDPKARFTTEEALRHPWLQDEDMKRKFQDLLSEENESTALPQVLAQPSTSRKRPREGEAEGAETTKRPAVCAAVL
Method: as §1

Chk1 = biological target: T5, Chk1 (Homo sapiens, UniProt O14757); assay: Radiometric kinase assay; type: biochemical
T5 construct: GST (N); purchased Upstate Biotechnology
T5 sequence (O14757 whole entry): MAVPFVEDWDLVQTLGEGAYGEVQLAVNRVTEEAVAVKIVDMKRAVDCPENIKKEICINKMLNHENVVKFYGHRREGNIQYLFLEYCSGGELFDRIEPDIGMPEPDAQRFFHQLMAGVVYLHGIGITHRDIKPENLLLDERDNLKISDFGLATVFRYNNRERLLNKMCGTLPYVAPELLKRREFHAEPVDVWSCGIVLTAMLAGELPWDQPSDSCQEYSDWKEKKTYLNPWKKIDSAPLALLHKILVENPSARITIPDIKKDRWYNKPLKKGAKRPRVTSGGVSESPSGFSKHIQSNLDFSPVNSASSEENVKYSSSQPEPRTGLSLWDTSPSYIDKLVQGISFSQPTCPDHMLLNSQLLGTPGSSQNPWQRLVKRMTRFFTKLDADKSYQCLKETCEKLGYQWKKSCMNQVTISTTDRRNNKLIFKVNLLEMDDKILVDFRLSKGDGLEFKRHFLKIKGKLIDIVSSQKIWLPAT
Method: as §1

Phospho-EGFR Tyr1068 = biological target: T6, Phospho-EGFR Tyr1068 (Homo sapiens, UniProt P00533, L858R/T790M); assay: Immunohistochemical analysis of phosphorylation in H1975 xenografts; type: in vivo, mouse; settings: 14-day dosing
T6 construct: host or cells: H1975 (cultured cells; s.c. xenografts in mice)
Method: (§2) For immunohistochemical analysis of H1975, MDA-MB-231 and other xenografts, tumors were excised after euthanasia and fixed in zinc fixative (BD Biosciences) for 48 h before being processed into paraffin blocks. Serial sections at 5 μm were obtained from the area of largest possible surface for each tumor and stained using standard methods. The following antibodies were used: Ki67 (SP6; Labvision), CD31 (MECA.32; BD Biosciences), pERK^Thr202/Tyr204 (phospho-p44/42 mitogen-activated protein kinase; Cell Signaling Technology), pAKT^Ser473 (Cell Signaling Technology), and pEGFR^Tyr1068 (Cell Signaling Technology). For immunofluorescent staining, sections were then incubated with Alexa 594-conjugated goat anti-rabbit secondary antibody (Invitrogen) and mounted in Fluorescent Mounting Medium (DAKO) containing 4′,6-diamidino-2-phenylindole (Molecular Probes) as a nuclear counterstain. Fluorescent staining was visualized using a Zeiss Axiolmager and digitally captured using a Zeiss high-resolution camera coupled to AxioVision image analysis software. Two to three nonoverlapping representative fields were captured at ×200 or ×400 magnification depending on histologic readout and quantified using the integrated morphometric analysis functions in Metamorph software (Universal Imaging Corp.). Apoptotic cells were detected using terminal deoxynucleotidyl transferase-mediated dUTP nick end labeling in situ cell death detection kit according to the manufacturer's instructions (Roche Diagnostics GmbH).
Results are presented as mean±SD or SE as indicated for each graph or table. For IC50 comparison in the A431 cell viability experiment, two sample Student's t tests were applied to determine P values for each IC50 pair assuming that the random fluctuations of replicates around the dose-response curve are distributed [log]normally with the individual replicates used as the ‘sample size’ for the t test (nine point dose response done in triplicate).

NOS (Neuronal-Binding) = biological target: T7, NOS (Neuronal-Binding) (Homo sapiens, UniProt P29475); assay: NovaScreen assay; settings: read-out: Inhibition, 10 μM XL-647
T7 construct: NovaScreen
T7 sequence (P29475 whole entry): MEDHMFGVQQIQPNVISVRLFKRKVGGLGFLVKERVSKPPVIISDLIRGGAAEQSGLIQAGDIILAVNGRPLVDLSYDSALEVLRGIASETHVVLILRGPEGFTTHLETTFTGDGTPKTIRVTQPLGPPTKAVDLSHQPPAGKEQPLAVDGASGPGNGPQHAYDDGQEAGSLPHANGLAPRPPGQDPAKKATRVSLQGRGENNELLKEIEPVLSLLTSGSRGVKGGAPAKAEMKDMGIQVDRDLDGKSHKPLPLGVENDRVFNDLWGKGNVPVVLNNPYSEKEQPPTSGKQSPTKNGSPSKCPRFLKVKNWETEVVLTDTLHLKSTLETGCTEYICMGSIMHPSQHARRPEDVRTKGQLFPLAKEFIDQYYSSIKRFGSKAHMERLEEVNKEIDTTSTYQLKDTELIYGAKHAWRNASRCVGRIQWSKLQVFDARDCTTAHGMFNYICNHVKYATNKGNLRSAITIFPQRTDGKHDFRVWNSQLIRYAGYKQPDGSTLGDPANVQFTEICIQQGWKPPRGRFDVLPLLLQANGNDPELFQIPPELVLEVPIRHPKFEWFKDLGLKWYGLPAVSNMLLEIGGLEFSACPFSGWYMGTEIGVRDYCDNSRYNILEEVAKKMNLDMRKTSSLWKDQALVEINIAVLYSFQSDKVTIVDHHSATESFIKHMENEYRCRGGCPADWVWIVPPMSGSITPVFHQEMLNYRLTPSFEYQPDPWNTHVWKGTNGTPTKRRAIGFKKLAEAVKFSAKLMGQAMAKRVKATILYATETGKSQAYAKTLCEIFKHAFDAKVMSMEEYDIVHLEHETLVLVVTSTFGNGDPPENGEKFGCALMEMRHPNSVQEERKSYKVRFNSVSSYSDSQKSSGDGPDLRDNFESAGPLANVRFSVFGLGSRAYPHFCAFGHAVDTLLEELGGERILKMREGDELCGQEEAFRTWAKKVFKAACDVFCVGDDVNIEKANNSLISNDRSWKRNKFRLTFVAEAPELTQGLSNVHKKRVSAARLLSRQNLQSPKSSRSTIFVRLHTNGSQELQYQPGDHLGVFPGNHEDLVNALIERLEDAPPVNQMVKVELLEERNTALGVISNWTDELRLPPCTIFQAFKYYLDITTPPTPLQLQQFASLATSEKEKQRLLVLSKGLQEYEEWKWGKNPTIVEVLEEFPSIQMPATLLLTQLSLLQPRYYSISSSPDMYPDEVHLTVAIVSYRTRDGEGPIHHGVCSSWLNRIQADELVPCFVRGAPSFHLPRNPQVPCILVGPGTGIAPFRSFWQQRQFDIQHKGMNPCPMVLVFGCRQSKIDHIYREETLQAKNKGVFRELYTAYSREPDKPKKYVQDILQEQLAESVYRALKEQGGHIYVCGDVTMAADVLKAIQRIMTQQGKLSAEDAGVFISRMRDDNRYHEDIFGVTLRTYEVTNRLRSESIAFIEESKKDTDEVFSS

Serotonin Transporter = biological target: T8, Serotonin Transporter (Homo sapiens, UniProt P31645); assay: NovaScreen assay; type: binding
T8 construct: NovaScreen
T8 sequence (P31645 whole entry): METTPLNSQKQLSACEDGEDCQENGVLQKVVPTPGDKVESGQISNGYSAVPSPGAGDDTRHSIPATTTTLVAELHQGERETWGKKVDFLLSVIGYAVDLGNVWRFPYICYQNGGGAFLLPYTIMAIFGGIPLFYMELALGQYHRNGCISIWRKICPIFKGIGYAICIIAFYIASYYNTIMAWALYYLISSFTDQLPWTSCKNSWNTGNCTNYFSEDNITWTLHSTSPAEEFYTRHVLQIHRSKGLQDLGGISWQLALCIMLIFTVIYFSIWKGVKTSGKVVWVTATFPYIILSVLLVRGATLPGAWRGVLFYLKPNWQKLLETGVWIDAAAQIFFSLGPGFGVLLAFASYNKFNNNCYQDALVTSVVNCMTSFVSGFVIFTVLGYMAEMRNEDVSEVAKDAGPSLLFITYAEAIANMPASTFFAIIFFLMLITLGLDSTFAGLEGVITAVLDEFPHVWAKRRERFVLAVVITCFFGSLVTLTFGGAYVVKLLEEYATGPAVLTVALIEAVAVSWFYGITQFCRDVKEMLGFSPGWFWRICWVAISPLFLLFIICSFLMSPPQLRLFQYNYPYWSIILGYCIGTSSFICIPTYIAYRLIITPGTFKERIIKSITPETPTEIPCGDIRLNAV

[2] = test system: Glycine, Strychnine-sensitive; assay: NovaScreen assay; type: binding
[3] = test system: MDA-MB-231 xenograft tumors; assay: Immunohistochemistry of MDA-MB-231 xenograft tumors (Ki67, CD31); type: in vivo, mouse; settings: 100 mg/kg, relative to vehicle
Method: as §2
(§3) CD31-positive tumor vessels, Ki67-positive proliferating cells, and pERK staining in each tumor section were identified and quantified using the integrated morphometric analysis functions in the ACIS automatic cellular imaging system (Clarient, Inc.) and reviewed by a blinded observer. Number of CD31-positive vessels were identified across 5 to 10 randomly chosen fields of equal size at ×100 magnification in viable tumor tissue and calculated as number of vessels per square millimeter for each tumor, averaged for each treatment group, and compared with vehicle-treated controls. Percentage Ki67-positive cells were calculated as the ratio between Ki67-positive cells divided by the total number of cells identified across 5 to 10 randomly chosen fields of equal size in viable tumor tissue. The results for each tumor and treatment group were averaged and compared with vehicle-treated controls. The level of pERK staining was determined as described above and calculated as the ratio of antibody staining divided by the total number of cells identified, averaged for each treatment group, and compared with vehicle-treated controls.
Tumor proliferation was measured by staining for Ki67, which […]. The degree of tumor vascularization was measured by staining with the endothelial cell marker CD31 (Table 20).

[4] = biological target: EGFR Variant III (pTet-On/Lx-1) (Homo sapiens, UniProt P00533, DELINS30-297G); assay: EGFR phosphorylation ELISA in transfected Lx-1 cells
Source text: Lx-1 cells were used because they lack background EGFR activity. A clone corresponding to the longest EGFR isoform (Genbank accession no. NM_005228.3/NP_005219.2 #21-176, Upstate Biotechnology) was used as a template to produce two mutant EGFR genes (coding for L858R and L861Q) by site-directed mutagenesis. The WT and the two sequence-verified mutants were transferred to a COOH-terminal Flag-tagged retroviral cytomegalovirus promoter-driven mammalian expression vector. The two Tet-On expression vectors, EGFR WT (Tet-On) and EGFRvIII (Tet-On), which were COOH-terminally Flag tagged, were generously provided by Dr. Abhijit Guha (University of Toronto, Toronto, Ontario, Canada).
Transient transfections of Lx-1 cells were done using Lipofectamine 2000 (Invitrogen) according to the manufacturer's protocol. For transfections of the WT, L858R, and L861Q constructs, 1 μg plasmid DNA was used for each transfection (each well of a 12-well plate). […]
For the EGFR phosphorylation ELISA, Reacti-Bind streptavidin-coated plates (Pierce) were coated with 2 μg/mL biotin-conjugated anti-Flag antibody (Sigma). […] Horseradish peroxidase activity was determined by reading the plates in a Victor2 plate reader following addition of the ELISA Femto substrate.

A431 tumors = assay: Immunohistochemical analysis of A431 tumors; type: in vivo, mouse; settings: 14-day dosing
Method: as §2, §3

PKA = biological target: T9, PKA (Bos taurus, UniProt P00517); assay: Chemiluminescent kinase assay; type: biochemical, bovine
T9 construct: Bovine (Heart),; purchased Upstate Biotechnology; host or cells: bovine heart
Method: as §1

Endothelin, ET-B (Human) = biological target: T10, Endothelin, ET-B (Human) (Homo sapiens, UniProt P24530); assay: NovaScreen assay; type: binding; settings: read-out: Inhibition, 10 μM XL-647
T10 construct: NovaScreen
T10 sequence (P24530 27-442): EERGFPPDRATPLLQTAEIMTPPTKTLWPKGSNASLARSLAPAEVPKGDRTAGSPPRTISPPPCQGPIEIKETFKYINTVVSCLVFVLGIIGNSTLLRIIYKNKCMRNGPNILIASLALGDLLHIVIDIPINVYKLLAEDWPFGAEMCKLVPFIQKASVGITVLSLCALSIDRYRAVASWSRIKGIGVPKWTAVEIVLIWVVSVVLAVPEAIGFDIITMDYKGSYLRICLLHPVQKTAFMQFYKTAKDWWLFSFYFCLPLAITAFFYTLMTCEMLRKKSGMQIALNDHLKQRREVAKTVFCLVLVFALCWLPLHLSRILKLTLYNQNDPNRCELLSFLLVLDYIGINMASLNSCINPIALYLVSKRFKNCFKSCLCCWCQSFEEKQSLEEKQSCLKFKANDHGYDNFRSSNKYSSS

Galanin, Non-Selective = assay: NovaScreen assay; type: binding
[5] = test system: Adrenergic, Alpha 1, Non-selective; assay: NovaScreen assay; type: binding

COc1cc2c(Nc3ccc(Cl)c(Cl)c3F)ncnc2cc1OC[C@@H]1C[C@@H]2CN(C)C[C@@H]2C1 [XL-647, N-(3,4-dichloro-2-fluorophenyl)-7-({[(3aR,5r,6aS)-2-methyloctahydrocyclopenta[c]pyrrol-5-yl]methyl}oxy)-6-(methyloxy)quinazolin-4-amine]
Inhibition, 10 μM XL-647 (Serotonin, Non-selective): 24.52% | CYP2D6 inhibition, in words (CYP2D6): inhibitor | inhibition at 10 µM [1]: 7.34% | IC50 (Plk1): > 1000 nM | IC50 (PKC-ε): > 10000 nM | IC50 (Chk2): > 10000 nM | IC50 (Chk1): > 10000 nM | Phospho-EGFR Tyr1068 % Cells (Phospho-EGFR Tyr1068; 10 mg/kg): 14 ± 1.9% | Phospho-EGFR Tyr1068 % Reduction (Phospho-EGFR Tyr1068; 10 mg/kg): 49.0^a % | Phospho-EGFR Tyr1068 % Cells (Phospho-EGFR Tyr1068; 30 mg/kg): 12 ± 1.3% | Phospho-EGFR Tyr1068 % Reduction (Phospho-EGFR Tyr1068; 30 mg/kg): 56.1^a % | Phospho-EGFR Tyr1068 % Cells (Phospho-EGFR Tyr1068; 100 mg/kg): 10 ± 1.8% | Phospho-EGFR Tyr1068 % Reduction (Phospho-EGFR Tyr1068; 100 mg/kg): 63.7^a % | inhibition at 10 µM (NOS (Neuronal-Binding)): 16.8% | IC50 (Serotonin Transporter): 188 nM | inhibition at 10 µM (Serotonin Transporter; read-out: Inhibition, 10 μM XL-647): 101% | Inhibition, 10 μM XL-647 [2]: 12.95% | CD31 (% Reduction) ([3]; 3 days): 76% and 76.5% | Ki67 (% Reduction) ([3]; 3 days): 9.62% | CD31 (% Reduction) ([3]; 5 days): 90.18% | Ki67 (% Reduction) ([3]; 5 days): 33.8% | CD31 (% Reduction) ([3]; 7 days): 95.7% | Ki67 (% Reduction) ([3]; 7 days): 50% and 48.7% | IC50 [4]: 74 nM | CD31 Analysis % Reduction (A431 tumors; 10 mg/kg): 33.5% | CD31 Analysis MVC (A431 tumors; 10 mg/kg): 18.6 | Ki67 Expression % Reduction (A431 tumors; 10 mg/kg): 53.3% | Ki67 Expression % of Cells (A431 tumors; 10 mg/kg): 17.6% | Necrosis % Increase (A431 tumors; 10 mg/kg): 20.7% | CD31 Analysis % Reduction (A431 tumors; 30 mg/kg): 43.2% | CD31 Analysis MVC (A431 tumors; 30 mg/kg): 15.9 | Ki67 Expression % Reduction (A431 tumors; 30 mg/kg): 67.2% | Ki67 Expression % of Cells (A431 tumors; 30 mg/kg): 12.3% | Necrosis % Increase (A431 tumors; 30 mg/kg): 26.5% | CD31 Analysis % Reduction (A431 tumors; 100 mg/kg): 87.3% | CD31 Analysis MVC (A431 tumors; 100 mg/kg): 3.6 | Ki67 Expression % Reduction (A431 tumors; 100 mg/kg): 82.6% | Ki67 Expression % of Cells (A431 tumors; 100 mg/kg): 6.5% | Necrosis % Increase (A431 tumors; 100 mg/kg): 61.7% | IC50 (PKA): > 10000 nM | inhibition at 10 µM (Endothelin, ET-B (Human)): -13.6% | Inhibition, 10 μM XL-647 (Galanin, Non-Selective): 1.57% | Inhibition, 10 μM XL-647 [5]: 49.40%
